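Where inhibition never reached the appropriate level, the endpoint shown equals the highest concentration tested. Otherwise, values were interpolated linearly from a five-concentration, 48-hour dose response in 96-well plates. Definition used: TGI = concentration required for complete inhibition of growth.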
What was measured:
Assay in all cases: DTP human tumour cell line panel, 48 h
[1] = system: A498 renal
[2] = system: HCC-2998 colon
[3] = system: HCT-116 colon
[4] = system: MCF7 breast
[5] = system: NCI-H460 lung
[6] = system: OVCAR-5 ovarian
[7] = system: RPMI-8226 leukemia
[8] = system: SF-539 CNS
[9] = system: SK-MEL-2 melanoma
[10] = system: SNB-75 CNS

Row | Structure (SMILES) | TGI [1] [µM] | TGI [2] [µM] | TGI [3] [µM] | TGI [4] [µM] | TGI [5] [µM] | TGI [6] [µM] | TGI [7] [µM] | TGI [8] [µM] | TGI [9] [µM] | TGI [10] [µM]
1 | O=C1CSC(c2ccc(Cl)cc2)N1c1ccc(-n2c(-c3ccccc3)nc3ccccc3c2=O)cc1 (configuration not stated) | > 100 | > 100 | > 100 | > 100 | > 100 | > 100 | > 100 | > 100 | > 100 | 69
2 | CC(C)(C)C(=O)C(C#N)C(=O)C(C)(C)C | > 100 | > 100 | > 100 | > 100 | > 100 | > 100 | > 100 | > 100 | > 100 | > 100
3 | COc1cccc(C(=O)C(O)c2cccc(OC)c2OC)c1OC (configuration not stated) | > 100 | > 100 | > 100 | > 100 | > 100 | > 100 | > 100 | > 100 | > 100 | > 100
4 | COc1cc(C2c3cc4c(c(O)c3C(=O)C3CCC(=O)N32)OCO4)cc(OC)c1OC (configuration not stated) | > 100 | > 100 | > 100 | > 100 | > 100 | > 100 | > 100 | > 100 | > 100 | > 100
5 | N#C/C(=C/NC(=S)Nc1ccc(S(N)(=O)=O)cc1)C(N)=O | > 100 | > 100 | > 100 | > 100 | > 100 | > 100 | > 100 | > 100 |  | > 100
6 | C[N+]12C=CC=C1C(N1CCCC1)c1sc(-c3ccc(Cl)cc3)cc12 (configuration not stated) | 41.4 | 29.2 | 29.6 | 28.3 | 32.6 | 35.8 | 57.7 |  | 21.1 | 25.7
7 | O=C(c1ccccc1)c1cc(-c2ccccc2)c(-c2ccccc2)[nH]c(=O)c1=O | > 100 | 60.6 | > 100 | > 100 | > 100 | > 100 | 60 | > 100 | 57.5 | 
8 | COc1cc2c(cc1C)NC(=O)/C2=C/c1c(Cl)n(C)c2ccccc12 | 21.5 | 20.1 | 21.9 | 25.7 | 29.1 | 36.4 | > 100 | 56.5 | 30.4 | 13.4
9 | CCN1CCc2sc3[nH]c(=S)n(C)c(=O)c3c2C1 | > 100 | > 100 | > 100 | > 100 | > 100 | > 100 | > 100 | > 100 | > 100 | > 100
10 | COC(=O)C(I(OS(=O)(=O)c1ccc(C)cc1)c1ccccc1)=P(c1ccccc1)(c1ccccc1)c1ccccc1 | 44.7 | 34.8 | 30.2 | 94.5 | > 100 | 73.1 | 24.2 | 34.9 | 36.4 | 
11 | COc1cccc2c(NNc3ccc(Cl)cc3)c3ccc([N+](=O)[O-])cc3nc12 | 33.2 | 53 | 20.3 | > 100 | 17.2 | 91.9 | > 100 | 33 | > 100 | 
12 | COC(=O)c1ccc2[nH]c3c(c2c1)CC(=O)Nc1ccccc1-3 | > 100 | > 100 | > 100 | > 100 | > 100 | > 100 | > 100 | 5.52 | > 100 | 6.11
13 | Cc1[nH]c(=O)nc2c1C(=O)N(C(C)C)C(NC(C)C)S2 (configuration not stated) | > 100 | > 100 | > 100 | > 100 |  | > 100 | > 100 | > 100 | > 100 | > 100
14 | COC(=O)c1cc(CNCCc2c[nH]c3ccccc23)on1 | > 100 | > 100 | > 100 | > 100 | > 100 | > 100 | > 100 | > 100 | > 100 | > 100
15 | CCC(c1ccc(N(C)C)cc1)C1NC(=S)NC1=O (configuration not stated) | > 100 | > 100 | > 100 | > 100 | > 100 | > 100 | > 100 | > 100 |  | > 100
16 | Cc1ccc(-c2cn3c(nc4ccccc43)c(C)n2)cc1 | > 77.5 | > 100 | > 100 | > 100 | > 100 | > 100 | > 100 | > 100 | > 63.8 | > 87.6
17 | COc1ccc(/C=N/NC(=O)c2ccccc2Nc2ccccc2C(=O)N/N=C/c2ccc(OC)c(OC)c2)cc1OC | > 100 | > 100 | > 100 | > 100 | > 100 | > 100 | > 100 |  | > 100 | > 100
18 | CC(C)NC(=O)OCc1c(COC(=O)NC(C)C)c(-c2ccc[n+](COC(=O)C3CCCCC3)c2)n2c1CCC2 | 87.5 | > 100 | > 100 | > 100 | > 100 | > 100 | > 100 | > 100 | > 100 | > 100

From PubChem BioAssay (NCI)
